Assay [1] addresses T1, SIRT1 (Homo sapiens, UniProt Q96EB6).
T1 sequence (Q96EB6 1-747): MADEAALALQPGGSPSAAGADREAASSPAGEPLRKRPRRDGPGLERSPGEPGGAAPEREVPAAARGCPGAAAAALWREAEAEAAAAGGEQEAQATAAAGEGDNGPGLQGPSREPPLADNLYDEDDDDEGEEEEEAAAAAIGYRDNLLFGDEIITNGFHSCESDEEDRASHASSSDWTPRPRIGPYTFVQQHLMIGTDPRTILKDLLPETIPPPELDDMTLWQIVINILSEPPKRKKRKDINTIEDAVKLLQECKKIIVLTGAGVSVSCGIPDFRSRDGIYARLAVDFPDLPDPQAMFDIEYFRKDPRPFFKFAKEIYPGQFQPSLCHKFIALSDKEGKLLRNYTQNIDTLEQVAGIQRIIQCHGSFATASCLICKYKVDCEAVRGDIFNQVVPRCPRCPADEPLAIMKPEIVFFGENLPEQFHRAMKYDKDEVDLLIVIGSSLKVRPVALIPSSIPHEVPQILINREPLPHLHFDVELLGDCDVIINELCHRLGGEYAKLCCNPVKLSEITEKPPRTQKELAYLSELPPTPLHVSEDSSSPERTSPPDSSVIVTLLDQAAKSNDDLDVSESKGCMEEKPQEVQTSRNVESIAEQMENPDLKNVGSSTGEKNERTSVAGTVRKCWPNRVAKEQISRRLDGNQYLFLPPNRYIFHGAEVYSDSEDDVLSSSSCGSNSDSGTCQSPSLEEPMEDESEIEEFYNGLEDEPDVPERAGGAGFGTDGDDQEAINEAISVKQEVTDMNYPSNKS
The experiment in a line: TAMRA based mass spectrometry assay of SIRT1 activity. The class given is biochemical. As to conditions: TAMRA assay; for TAMRA EC1.5 (μM): concentration giving 150% activation of SIRT1; for Emax: percent maximum fold activation, read-out: TAMRA % Fold Act. In a few lines: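 Deacetylation of a biotinylated, TAMRA-tagged p53-based peptide (0.5 μM) by 10 nM His-tagged SIRT1 with 120 μM βNAD+, 25 °C for 25 min, pH 8 Tris-acetate buffer, across a compound concentration range. Quenched by formic acid and read by mass spec as product peptide or OAADPR; activity relative to DMSO reactions, nicotinamide defining maximal inhibition.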

The target in assay [2] is T1, SIRT1. The experiment in a line: Trp mass spectrometry assay of SIRT1 activity. The class given is biochemical. As to conditions: Trp assay; for Trp EC1.5 (μM): concentration giving 150% activation of SIRT1; for Emax: percent maximum fold activation, read-out: Trp % Fold Act. The gist of the method: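 Activation readout: EC1.5 (concentration raising activity 50% over control) and percent maximum activation, from mass-spec quantitation of OAADPR or deacetylated Trp peptide. Reaction: 0.5 μM acetylated Trp peptide, 120 μM βNAD+, 10 nM bacterially expressed N-His SIRT1, pH 7.5 HEPES buffer with […], 25 min at 25° C.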

Consider `O=C(Nc1cnn2ccc(-c3ccccc3OC(F)(F)F)nc12)c1ncccc1F` [Compound 754], for which, on SIRT1 [1], the “TAMRA EC1.5 (μM)” value is reported as “A (EC1.5<1 μM)” and the Emax is at least 350%. For the same compound, on SIRT1 [2], the “Trp EC1.5 (μM)” value is on record as “B (EC1.5 1-25 μM)” and the Emax was under 350%.
In the same order, the values of `O=C(Nc1cnn2ccc(-c3ccccc3OC(F)(F)F)nc12)c1ncc(F)cc1F` [Compound 755] are “A (EC1.5<1 μM)”, at least 350%, “B (EC1.5 1-25 μM)” and under 350%.
On to `COc1ccc(NC(=O)c2c(C)nc3ccc(-c4cccc(F)c4)nn23)nn1` [Compound 761], for which, at SIRT1 [1], the “TAMRA EC1.5 (μM)” value is recorded as “C (EC1.5>25 μM)” and the Emax was under 350%. Also, on SIRT1 [2], the “Trp EC1.5 (μM)” value is recorded as “A (EC1.5<1 μM)” and the Emax was under 350%.
For the compound `Cc1cccc(-c2ccc3nc(C)c(C(=O)Nc4cccnn4)n3n2)c1` [Compound 766], on SIRT1 [1], the “TAMRA EC1.5 (μM)” value was “A (EC1.5<1 μM)” and the Emax is under 350%. Also, on SIRT1 [2], the “Trp EC1.5 (μM)” value was “A (EC1.5<1 μM)” and the Emax is under 350%.
For the compound `Cc1nc2ccc(-c3cccc(F)c3)nn2c1C(=O)Nc1cccnn1` [Compound 767], on SIRT1 [1], the “TAMRA EC1.5 (μM)” value is on record as “B (EC1.5 1-25 μM)” and the Emax was under 350%. On SIRT1 [2], the “Trp EC1.5 (μM)” value is “A (EC1.5<1 μM)” and the Emax is at least 350%.
As for `O=C(Nc1cnn2ccc(-c3ccccc3OC(F)(F)F)nc12)c1nc(C(F)(F)F)cs1` [Compound 770], at SIRT1 [1], the “TAMRA EC1.5 (μM)” value is reported as “B (EC1.5 1-25 μM)” and the Emax is at least 350%. At SIRT1 [2], the “Trp EC1.5 (μM)” value is listed as “C (EC1.5>25 μM)” and the Emax was under 350%.
In the same order, the values of `Cc1nc2ccc(-c3cccc(OC[C@H](O)CO)c3)nn2c1C(=O)Nc1ccccn1` [Compound 772, (R)-6-(3-(2,3-dihydroxypropoxy)phenyl)-2-methyl-N-(pyridin-2-yl)imidazo[1,2-b]pyridazine-3-carboxamide] are “B (EC1.5 1-25 μM)”, at least 350%, “B (EC1.5 1-25 μM)” and at least 350%.
In the same order, the values of `Cc1nc2c(OC[C@H](O)CO)cc(-c3ccccc3C(F)(F)F)nn2c1C(=O)Nc1cccnn1` [Compound 773, (R)-8-(2,3-dihydroxypropoxy)-2-methyl-N-(pyridazin-3-yl)-6-(2-(trifluoromethyl)phenyl)imidazo[1,2-b]pyridazine-3-carboxamide] are “A (EC1.5<1 μM)”, at least 350%, “A (EC1.5<1 μM)” and at least 350%.
The matching figures for `O=C(Nc1cnn2ccc(-c3ccccc3OC(F)(F)F)nc12)c1cc(O)ncn1` [Compound 776]: “B (EC1.5 1-25 μM)”, at least 350%, “C (EC1.5>25 μM)” and under 350%.
On to `COc1cc(NC(=O)c2c(C)nn3ccc(-c4ccccc4C(F)(F)F)nc23)ncn1` [Compound 778], for which, at SIRT1 [1], the “TAMRA EC1.5 (μM)” value was “A (EC1.5<1 μM)” and the Emax is at least 350%. Further, at SIRT1 [2], the “Trp EC1.5 (μM)” value is “A (EC1.5<1 μM)” and the Emax is under 350%.
With `O=C(Nc1ccnc(O)c1)c1cnn2ccc(-c3ccccc3OC(F)(F)F)nc12` [Compound 779], at SIRT1 [1], the “TAMRA EC1.5 (μM)” value is recorded as “A (EC1.5<1 μM)” and the Emax was at least 350%. Moreover, at SIRT1 [2], the “Trp EC1.5 (μM)” value was “A (EC1.5<1 μM)” and the Emax is at least 350%.
With `Cc1cnc(C(=O)Nc2cnn3ccc(-c4ccccc4OC(F)(F)F)nc23)s1` [Compound 782], on SIRT1 [1], the “TAMRA EC1.5 (μM)” value is on record as “A (EC1.5<1 μM)” and the Emax is at least 350%. On SIRT1 [2], the “Trp EC1.5 (μM)” value is on record as “C (EC1.5>25 μM)” and the Emax was under 350%.
In the same order, the values of `Cc1nn2ccc(-c3ccccc3C(F)(F)F)nc2c1C(=O)Nc1ccnc(O)c1` [Compound 784] are “A (EC1.5<1 μM)”, at least 350%, “A (EC1.5<1 μM)” and at least 350%.
The matching figures for `O=C(Nc1cnn2ccc(-c3ccccc3OC(F)(F)F)nc12)c1cscn1` [Compound 785]: “B (EC1.5 1-25 μM)”, at least 350%, “C (EC1.5>25 μM)” and under 350%.
The matching figures for `Cc1nn2ccc(-c3ccccc3C(F)(F)F)nc2c1C(=O)Nc1ncc(F)cc1F` [Compound 788]: “B (EC1.5 1-25 μM)”, at least 350%, “B (EC1.5 1-25 μM)” and at least 350%.
Consider `Cc1cccc(NC(=O)c2c(C)nc3ccc(-c4cccc(OC[C@H](O)CO)c4)nn23)n1` [Compound 790], for which, on SIRT1 [1], the “TAMRA EC1.5 (μM)” value is “A (EC1.5<1 μM)” and the Emax is at least 350%. On SIRT1 [2], the “Trp EC1.5 (μM)” value is reported as “A (EC1.5<1 μM)” and the Emax is at least 350%.
Take `Cc1cc(C)nc(NC(=O)c2c(C)nc3ccc(-c4cccc(OC[C@H](O)CO)c4)nn23)c1` [Compound 791]: at SIRT1 [1], the “TAMRA EC1.5 (μM)” value was “A (EC1.5<1 μM)” and the Emax was at least 350%. Moreover, on SIRT1 [2], the “Trp EC1.5 (μM)” value was “B (EC1.5 1-25 μM)” and the Emax was under 350%.
Consider `Cc1nccc(C(=O)Nc2cnn3ccc(-c4ccccc4C(F)(F)F)nc23)n1` [Compound 794], for which, at SIRT1 [1], the “TAMRA EC1.5 (μM)” value is “A (EC1.5<1 μM)” and the Emax is at least 350%. Moreover, on SIRT1 [2], the “Trp EC1.5 (μM)” value is reported as “B (EC1.5 1-25 μM)” and the Emax was under 350%.
In the same order, the values of `CC(C)c1nccc(C(=O)Nc2cnn3ccc(-c4ccccc4C(F)(F)F)nc23)n1` [Compound 796] are “A (EC1.5<1 μM)”, at least 350%, “B (EC1.5 1-25 μM)” and under 350%.
In the same order, the values of `COc1nccc(NC(=O)c2cnn3ccc(-c4ccccc4OC(F)(F)F)nc23)n1` [Compound 797] are “A (EC1.5<1 μM)”, at least 350%, “A (EC1.5<1 μM)” and at least 350%.
For `Cc1cnc(C(=O)Nc2cnn3ccc(-c4ccccc4C(F)(F)F)nc23)cn1` [Compound 800], at SIRT1 [1], the “TAMRA EC1.5 (μM)” value was “B (EC1.5 1-25 μM)” and the Emax is at least 350%. In addition, on SIRT1 [2], the “Trp EC1.5 (μM)” value is reported as “C (EC1.5>25 μM)” and the Emax was under 350%.
The matching figures for `O=C(Nc1cnn2ccc(-c3ccccc3C(F)(F)F)nc12)c1cscn1` [Compound 802]: “B (EC1.5 1-25 μM)”, at least 350%, “C (EC1.5>25 μM)” and under 350%.
In the same order, the values of `Cc1scnc1C(=O)Nc1cnn2ccc(-c3ccccc3C(F)(F)F)nc12` [Compound 803] are “B (EC1.5 1-25 μM)”, at least 350%, “C (EC1.5>25 μM)” and under 350%.
In the same order, the values of `Cc1cc(C)nc(NC(=O)c2cnn3ccc(-c4ccccc4C(F)(F)F)nc23)n1` [Compound 806] are “A (EC1.5<1 μM)”, at least 350%, “B (EC1.5 1-25 μM)” and at least 350%.
On to `CC(C)c1csc(C(=O)Nc2cnn3ccc(-c4ccccc4C(F)(F)F)nc23)n1` [Compound 808], for which, on SIRT1 [1], the “TAMRA EC1.5 (μM)” value is “A (EC1.5<1 μM)” and the Emax is at least 350%. On SIRT1 [2], the “Trp EC1.5 (μM)” value was “B (EC1.5 1-25 μM)” and the Emax was under 350%.
In the same order, the values of `O=C(Nc1cnn2ccc(-c3ccccc3C(F)(F)F)nc12)c1nc(C(F)(F)F)cs1` [Compound 809] are “A (EC1.5<1 μM)”, at least 350%, “C (EC1.5>25 μM)” and under 350%.
The matching figures for `O=C(Nc1ccccn1)c1cnc2ccc(-c3ccccc3OC[C@H](O)CO)nn12` [Compound 812]: “A (EC1.5<1 μM)”, at least 350%, “A (EC1.5<1 μM)” and at least 350%.
In the same order, the values of `O=C(Nc1ccc(F)cn1)c1cnc2ccc(-c3ccccc3OC[C@H](O)CO)nn12` [Compound 814] are “B (EC1.5 1-25 μM)”, at least 350%, “B (EC1.5 1-25 μM)” and under 350%.

The record behind these values is patent US9957271B2, “Substituted bicyclic aza-heterocycles and analogues as sirtuin modulators” (GlaxoSmithKline, LLC, priority 2012, dated 2018).
